Active and inactive are the calls of the source. The rule behind the calls is not given here.
Legend:
[1] = molecular target: Aryl hydrocarbon receptor nuclear translocator/Endothelial PAS domain-containing protein 1 (Homo sapiens) (UniProt P27540+Q99814); details: filed as agonist, dose 10.0 µM
[2] = molecular target: Endothelial PAS domain-containing protein 1 (Homo sapiens) (UniProt Q99814); experiment: Agonist activity at human HIF-2alpha expressed in human 786-0 cells assessed as increase in NDRG1 transcription level at 20 uM incubated for 24 hrs by RT-PCR analysis relative to control; type: cell-based; details: filed as agonist
[3] = molecular target: Endothelial PAS domain-containing protein 1 (Homo sapiens) (UniProt Q99814); experiment: Agonist activity at human HIF-2alpha expressed in human 786-0 cells assessed as increase in PGK1 transcription level at 20 uM incubated for 24 hrs by RT-PCR analysis relative to control; type: cell-based; details: filed as agonist
[4] = molecular target: Endothelial PAS domain-containing protein 1 (Homo sapiens) (UniProt Q99814); experiment: Agonist activity at human HIF-2alpha expressed in human 786-0 cells assessed as increase in VEGFA transcription level at 20 uM incubated for 24 hrs by RT-PCR analysis relative to control; type: cell-based; details: filed as agonist
[5] = molecular target: Endothelial PAS domain-containing protein 1 (Homo sapiens) (UniProt Q99814); experiment: Synergistic agonist activity at human HIF-2alpha expressed in human Hep3B cells assessed as induction of EPO transcription at 5 uM pretreated with FG4592 followed by compound addition and measured after 12 hrs by qRT-PCR analysis; type: cell-based; details: filed as agonist
[6] = molecular target: Endothelial PAS domain-containing protein 1 (Homo sapiens) (UniProt Q99814); experiment: Agonist activity at human HIF-2alpha expressed in human 786-0 cells assessed as increase in GLUT1 transcription level at 20 uM incubated for 24 hrs by RT-PCR analysis relative to control; type: cell-based; details: filed as agonist
[7] = molecular target: Endothelial PAS domain-containing protein 1 (Homo sapiens) (UniProt Q99814); experiment: Agonist activity at human HIF-2alpha expressed in human 786-0 cells assessed as increase in NDRG1 transcription level at 0.2 uM incubated for 24 hrs by RT-PCR analysis relative to control; type: cell-based; details: filed as agonist
[8] = molecular target: Endothelial PAS domain-containing protein 1 (Homo sapiens) (UniProt Q99814); experiment: Agonist activity at human HIF-2alpha expressed in human 786-0 cells assessed as increase in NDRG1 transcription level at 2 uM incubated for 24 hrs by RT-PCR analysis relative to control; type: cell-based; details: filed as agonist
[9] = molecular target: Endothelial PAS domain-containing protein 1 (Homo sapiens) (UniProt Q99814); experiment: Agonist activity at human HIF-2alpha expressed in human 786-0 cells assessed as increase in VEGFA transcription level at 2 uM incubated for 24 hrs by RT-PCR analysis relative to control; type: cell-based; details: filed as agonist
[10] = molecular target: Endothelial PAS domain-containing protein 1 (Homo sapiens) (UniProt Q99814); experiment: Agonist activity at human HIF-2alpha expressed in human 786-0 cells assessed as increase in VEGFA transcription level at 0.2 uM incubated for 24 hrs by RT-PCR analysis relative to control; type: cell-based; details: filed as agonist

Sequence of Aryl hydrocarbon receptor nuclear translocator/Endothelial PAS domain-containing protein 1 (Homo sapiens) (P27540 2-789 limits assumed): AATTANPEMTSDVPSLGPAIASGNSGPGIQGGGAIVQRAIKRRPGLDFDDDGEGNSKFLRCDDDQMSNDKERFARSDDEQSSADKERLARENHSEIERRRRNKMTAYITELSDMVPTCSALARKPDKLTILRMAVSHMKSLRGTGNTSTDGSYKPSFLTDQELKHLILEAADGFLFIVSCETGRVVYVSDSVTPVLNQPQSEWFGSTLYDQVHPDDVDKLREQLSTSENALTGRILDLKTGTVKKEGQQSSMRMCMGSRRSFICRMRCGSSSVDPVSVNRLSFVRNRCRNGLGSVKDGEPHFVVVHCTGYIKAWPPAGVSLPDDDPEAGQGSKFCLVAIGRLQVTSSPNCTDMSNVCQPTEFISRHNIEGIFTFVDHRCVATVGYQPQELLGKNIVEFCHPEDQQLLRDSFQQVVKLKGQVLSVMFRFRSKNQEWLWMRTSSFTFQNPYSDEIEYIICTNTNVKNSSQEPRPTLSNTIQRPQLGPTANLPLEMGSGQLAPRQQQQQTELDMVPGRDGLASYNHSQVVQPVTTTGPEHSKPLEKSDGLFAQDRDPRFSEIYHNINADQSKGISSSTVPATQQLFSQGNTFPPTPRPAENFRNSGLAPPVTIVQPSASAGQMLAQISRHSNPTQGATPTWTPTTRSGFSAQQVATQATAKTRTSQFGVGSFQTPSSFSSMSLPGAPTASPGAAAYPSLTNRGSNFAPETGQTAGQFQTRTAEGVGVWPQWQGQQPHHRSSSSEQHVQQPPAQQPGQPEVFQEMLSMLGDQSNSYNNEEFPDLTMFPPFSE
Sequence of Aryl hydrocarbon receptor nuclear translocator/Endothelial PAS domain-containing protein 1 (Homo sapiens) (Q99814 whole entry partner, the tested form may be a part): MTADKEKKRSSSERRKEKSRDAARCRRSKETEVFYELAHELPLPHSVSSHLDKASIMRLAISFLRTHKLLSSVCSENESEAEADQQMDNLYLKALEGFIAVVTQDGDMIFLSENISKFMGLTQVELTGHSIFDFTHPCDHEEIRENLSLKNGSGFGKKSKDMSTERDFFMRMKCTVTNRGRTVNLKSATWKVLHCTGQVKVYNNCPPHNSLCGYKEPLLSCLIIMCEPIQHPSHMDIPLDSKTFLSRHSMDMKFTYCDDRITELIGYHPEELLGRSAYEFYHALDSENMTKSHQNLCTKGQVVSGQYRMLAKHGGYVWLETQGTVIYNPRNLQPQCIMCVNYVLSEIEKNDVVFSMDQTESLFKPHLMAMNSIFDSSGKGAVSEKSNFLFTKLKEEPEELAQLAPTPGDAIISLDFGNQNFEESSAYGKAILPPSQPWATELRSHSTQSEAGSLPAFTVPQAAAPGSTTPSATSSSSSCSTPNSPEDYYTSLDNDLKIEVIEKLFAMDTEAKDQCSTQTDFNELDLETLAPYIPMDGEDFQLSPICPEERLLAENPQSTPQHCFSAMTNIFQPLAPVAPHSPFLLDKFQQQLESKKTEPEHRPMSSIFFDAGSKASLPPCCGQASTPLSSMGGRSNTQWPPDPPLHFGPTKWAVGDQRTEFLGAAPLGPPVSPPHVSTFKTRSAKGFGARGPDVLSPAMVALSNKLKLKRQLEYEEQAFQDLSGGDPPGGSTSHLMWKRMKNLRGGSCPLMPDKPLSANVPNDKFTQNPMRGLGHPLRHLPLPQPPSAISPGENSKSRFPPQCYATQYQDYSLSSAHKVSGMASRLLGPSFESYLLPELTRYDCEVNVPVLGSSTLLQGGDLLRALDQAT
Sequence of Endothelial PAS domain-containing protein 1 (Homo sapiens) (Q99814 whole entry, the tested form may be a part): as the sequence (Q99814 whole entry partner, the tested form may be a part) above

ΔTm [1] [°C]	Activity [2] [%]	Activity [3] [%]	Activity [4] [%]	Activity [5]	SMILES	further results
0.07	–	–	–	–	O=S1(=O)N=C(Nc2cc(F)ccc2F)c2ccccc21	–
-0.13	–	–	–	–	CC(=O)c1cccc(NC2=NS(=O)(=O)c3ccccc32)c1	–
0.07	97.6	124	105	Active	O=S1(=O)N=C(Oc2cc(C(F)(F)F)cc(C(F)(F)F)c2)c2ccccc21	–
0.1	92.1	62	102	–	FC(F)(F)c1cc(Nc2csc3ccccc23)cc(C(F)(F)F)c1	Activity [6]: 87.4%
0.96	–	–	–	Active	N#Cc1cc(NC2=NS(=O)(=O)c3ccccc32)cc(C(F)(F)F)c1	–
0	–	–	–	Active	COc1cc(NC2=NS(=O)(=O)c3ccccc32)cc(OC)c1	–
0.29	–	–	–	Active	O=S1(=O)N=C(Nc2ccc(F)c(F)c2)c2ccccc21	–
0.89	272	55	161	Active	O=S1(=O)N=C(Nc2cc(C(F)(F)F)cc(C(F)(F)F)c2)c2ccccc21	Activity [6]: 132%
-0.1	–	–	–	–	O=S1(=O)N=C(Nc2cc(C(F)(F)F)cc(C(F)(F)F)c2)c2cc(Cl)ccc21	–
0.44	96.6	97	124	Active	CN(C1=NS(=O)(=O)c2ccccc21)c1cc(C(F)(F)F)cc(C(F)(F)F)c1	–
0.87	432	117	265	Active	O=S1(=O)N=C(Nc2cc(C(F)(F)F)cc(C(F)(F)F)c2)c2cc(Br)ccc21	Activity [7]: 88%; Activity [8]: 110%; Activity [6]: 218%; Activity [9]: 116%; Activity [10]: 93.3%
0.74	–	–	–	Active	O=C(O)c1cc(NC2=NS(=O)(=O)c3ccccc32)cc(C(=O)O)c1	–
0.44	–	–	–	Active	O=S1(=O)C=C(Nc2cc(C(F)(F)F)cc(C(F)(F)F)c2)c2ccccc21	–
0.22	–	–	–	–	O=S1(=O)N=C(Nc2ccccc2F)c2ccccc21	–
0.37	–	–	–	Active	O=S1(=O)N=C(Nc2cc(F)cc(F)c2)c2cc(Br)ccc21	–
-0.14	–	–	–	–	O=S1(=O)N=C(Nc2cc(C(F)(F)F)cc(C(F)(F)F)c2)c2cc(F)ccc21	–
0.17	–	–	–	–	O=S1(=O)N=C(Nc2cccc(F)c2)c2ccccc21	–

ΔTm [1] [°C]	Activity [2] [%]	Activity [3] [%]	Activity [4] [%]	Activity [5]	SMILES	further results
-0.15	–	–	–	–	O=S1(=O)N=C(Nc2cccc(F)c2F)c2ccccc21	–
0.74	89.4	102	77.9	Active	O=S1(=O)N=C(Nc2cccc(C(F)(F)F)c2)c2ccccc21	Activity [6]: 80.9%
0.3	–	–	–	–	O=S1(=O)N=C(Nc2ccc(F)cc2)c2ccccc21	–
0.17	87.4	127	111	–	[O-][s+]1cc(Nc2cc(C(F)(F)F)cc(C(F)(F)F)c2)c2ccccc21 (stereo unspecified)	Activity [6]: 108%
-0.29	–	–	–	–	COc1ccc2c(c1)C(Nc1cc(C(F)(F)F)cc(C(F)(F)F)c1)=NS2(=O)=O	–
0.02	126	90	140	–	O=S1(=O)N=C(Nc2ccccc2)c2ccccc21	Activity [6]: 96.3%
-0.06	–	–	–	–	O=S1(=O)N=C(Nc2cc(F)cc(F)c2)c2ccc(Br)cc21	–
0.55	214	72	146	Active	O=S1(=O)N=C(Nc2cc(F)cc(F)c2)c2ccccc21	Activity [6]: 185%
0.14	–	–	–	–	O=S1(=O)N=C(Nc2ccc(F)cc2F)c2ccccc21	–
1.28	–	–	–	Active	COC(=O)c1cc(C#N)cc(NC2=NS(=O)(=O)c3ccccc32)c1	–
0.07	–	–	–	–	N#Cc1cccc(NC2=NS(=O)(=O)c3ccccc32)c1	–
0	–	–	–	–	CS(=O)(=O)c1cc(NC2=NS(=O)(=O)c3ccccc32)cc(S(C)(=O)=O)c1	–
0.07	–	–	–	Active	O=S1(=O)N=C(Nc2cc(C(F)(F)F)cc(C(F)(F)F)c2)c2ccc(Br)cc21	–
0.02	–	–	–	–	COC(=O)c1cc(NC2=NS(=O)(=O)c3ccccc32)cc(C(=O)OC)c1	–
0.83	–	–	–	Active	N#Cc1ccc2c(c1)C(Nc1cc(C(F)(F)F)cc(C(F)(F)F)c1)=NS2(=O)=O	–
0.44	95.1	90	85.7	Active	O=S1(=O)N=C(Nc2ccc(C(F)(F)F)cc2)c2ccccc21	Activity [6]: 76.8%
